Test results: paper PMC10224441, “Structural Manipulations of Marine Natural Products Inspire a New Library of 3-Amino-1,2,4-Triazine PDK Inhibitors Endowed with Antitumor Activity in Pancreatic Ductal Adenocarcinoma” (Marine Drugs, 2023)
Where a name gives a salt, the structure may show the parent alone. Read-outs that look alike come from different tables or passages of the source.

Legend:
recombinant human PDK1 = biological target: T1, recombinant human PDK1 (Homo sapiens, UniProt Q15118); test: PDK1 ADPGlo Kinase Assay; format: biochemical; settings: for IC50: isolated PDK1 isoform, four-parameter logistic model, mean of 3 independent experiments, read-out: IC50 (µM) ± S.D. PDK1
T1 construct: purchased Abcam
T1 sequence (Q15118 29-436): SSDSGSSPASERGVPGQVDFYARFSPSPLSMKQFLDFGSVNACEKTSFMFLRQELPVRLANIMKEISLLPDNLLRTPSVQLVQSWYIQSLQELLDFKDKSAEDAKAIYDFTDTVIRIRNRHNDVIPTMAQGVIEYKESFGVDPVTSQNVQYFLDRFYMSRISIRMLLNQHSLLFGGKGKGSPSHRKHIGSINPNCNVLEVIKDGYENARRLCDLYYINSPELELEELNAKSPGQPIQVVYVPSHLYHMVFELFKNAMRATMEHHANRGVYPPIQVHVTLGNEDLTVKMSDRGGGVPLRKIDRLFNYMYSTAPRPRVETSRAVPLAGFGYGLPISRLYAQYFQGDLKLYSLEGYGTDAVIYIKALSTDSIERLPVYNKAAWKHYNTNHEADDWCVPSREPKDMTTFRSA
Procedure: The ability of the tested compounds to hamper the activity of PDK1-4 isoforms was firstly evaluated by means of a chemioluminescent assay, the ADPGlo™ Kinase Assay kit (Promega Corporation, Madison, WI, USA).
The in vitro inhibitory activity of tested compounds on recombinant human PDK1-4 isoforms (Abcam, Cambridge, MA, USA) was evaluated by using the ADPGlo™ Kinase Assay kit from Promega (Promega Corporation, Madison, WI, USA) following the instructions of the manufacturer, as previously described.

BxPC-3 spheroids = test: 3D spheroid cytotoxicity, acid phosphatase (APH) assay, BxPC-3; format: cell-based; settings: Homo sapiens, 72 h, acid phosphatase (APH) test, read-out: IC50 (µM) ± S.D. BxPC-3 (3D spheroids)
[1] = test system: BxPC-3 cells (KRAS-wild-type PDAC); test: 2D cytotoxicity, MTT assay, BxPC-3; format: cell-based; settings: Homo sapiens, read-out: IC50 (µM) ± S.D. BxPC-3 (2D)
Procedure: (§1) All newly developed 1,2,4-amino-triazine compounds were screened for their cytotoxic activity against two human PDAC cell lines, namely, a KRAS-wild-type PDAC cell line (BxPC-3 cells) and a KRAS-mutant PDAC cell line (PSN-1 cells). […] The cytotoxicity parameters, expressed in terms of IC50 and obtained after 72 h of drug exposure by MTT assay, are reported in Table 3.
(§2) All tested compounds were dissolved in DMSO just before the experiment, and a calculated amount of drug solution was added to the cell growth medium to a final solvent concentration of 0.5%, which had no detectable effects on cell viability.
(§3) Human pancreatic PSN-1 and BxPC-3 carcinoma cell lines were obtained by American Type Culture Collection (ATCC, Rockville, MD, USA). Cell lines were maintained in the logarithmic phase at 37 °C in a 5% carbon dioxide atmosphere using RPMI-1640 medium (EuroClone) containing 10% fetal calf serum (EuroClone, Milan, Italy), antibiotics (50 units/mL penicillin and 50 μg/mL streptomycin) and 2 mM l-glutamine.
(§4) The growth inhibitory effect on tumor cells was evaluated by means of MTT assay. Briefly, 5 × 10^3 cells/well were seeded in 96-well microplates in a growth medium (100 μL). After 24 h, the medium was removed and replaced with a fresh one containing the compound to be studied at the appropriate concentration. Triplicate cultures were established for each treatment. After 72 h, each well was treated with 10 μL of a 5 mg/mL MTT saline solution, and following 5 h of incubation, 100 μL of a sodium dodecyl sulfate (SDS) solution in HCl 0.01 M was added. After overnight incubation, cell growth inhibition was detected by measuring the absorbance of each well at 570 nm using a Bio-Rad 680 microplate reader. The mean absorbance for each drug dose was expressed as a percentage of the control untreated well absorbance and plotted vs. drug concentration. IC50 values, the drug concentrations that reduce the mean absorbance at 570 nm to 50% of those in the untreated control wells, were calculated by the four-parameter logistic (4-PL) model. The evaluation was based on means from at least four independent experiments.

PSN-1 spheroids = test: 3D spheroid cytotoxicity, acid phosphatase (APH) assay, PSN-1; format: cell-based; settings: Homo sapiens, PSN1, 72 h, acid phosphatase (APH) test, read-out: IC50 (µM) ± S.D. PSN-1 (3D spheroids)
Procedure: Prompted by these encouraging results, we also screened the newly developed 1,2,4-triazine compounds against 3D spheroids of PDAC KRAS wild-type and mutant cells, to further estimate their anticancer potential in a more predictive environment. […] The PDAC cancer spheroids were treated with tested compounds for 72 h, and cell viability was assessed by means of the acid phosphatase (APH) assay (Table 3). The efficacy of gemcitabine as well as of DCA and DAP was assessed under the same experimental conditions.
Spheroid cultures were obtained by seeding 2.5 × 10^3 PSN-1 cancer cells/well in a round-bottom non-treated tissue culture 96-well plate (Greiner Bio-one, Kremsmünster, Austria) in phenol red-free RPMI-1640 medium (Sigma Chemical Co, St. Louis, MO, USA) containing 10% fetal calf serum and supplemented with 20% methylcellulose stock solution.
An APH-modified assay was used for determining cell viability in 3D spheroids, as previously described. Briefly, the pre-seeded spheroids were treated with fresh medium containing the compound to be studied at the appropriate concentration (range 2.5–200 μM). Triplicate cultures were established for each treatment. After 72 h, each well was treated with 100 μL of the assay buffer (0.1 M sodium acetate, 0.1% Triton-X-100, supplemented with ImmunoPure p-nitrophenyl phosphate; Sigma Chemical Co.) and, following 3 h of incubation, 10 μL of 1 M NaOH solution were added. The inhibition of the cell growth induced by the tested compounds was detected by measuring the absorbance of each well at 405 nm, using a Bio-Rad 680 microplate reader. The mean absorbance for each drug dose was expressed as a percentage of the control untreated well absorbance (T/C) and plotted vs. drug concentration. IC50 values, the drug concentrations that reduce the mean absorbance at 405 nm 50% of those in the untreated control wells, were calculated by the four-parameter logistic (4-PL) model. The evaluation was based on means from at least four independent experiments.

[2] = test system: PSN-1 cells (KRAS-mutant PDAC); test: 2D cytotoxicity, MTT assay, PSN-1; format: cell-based; settings: Homo sapiens, read-out: IC50 (µM) ± S.D. PSN-1 (2D)
Procedure: as §1, §2, §3, §4

[3] = BXPC-3, 72 h exposure, MTT test, 2D culture
[4] = PSN1, 72 h exposure, MTT test, 2D culture

## Cn1cc(-c2nnc(N)nc2-c2cn(C)c3ncccc23)c2ccccc21 [4a, 6-(1-Methyl-1H-indol-3-yl)-5-(1-methyl-1H-pyrrolo[2,3-b]pyridin-3-yl)-1,2,4-triazin-3-amine]
Recombinant human PDK1
  IC50: 0.3 ± 0.1 µM
BxPC-3 spheroids
  IC50: 141.3 ± 0.1 µM
[1]; [3]
  IC50: 15.7 ± 2.2 µM
PSN-1 spheroids
  IC50: 97.5 ± 2.8 µM
other
  melting point: 268.1 °C
[2]; [4]
  IC50: 11.3 ± 2 µM

## Cn1cc(-c2nnc(N)nc2-c2cn(C)c3ncc(Br)cc23)c2ccccc21 [4b, 5-(5-Bromo-1-methyl-1H-pyrrolo[2,3-b]pyridin-3-yl)-6-(1-methyl-1H-indol-3-yl)-1,2,4-triazin-3-amine]
Recombinant human PDK1
  IC50: 0.33 ± 0.05 µM
BxPC-3 spheroids
  IC50: 224 ± 14.8 µM
[1]; [3]
  IC50: 23.5 ± 3.2 µM
PSN-1 spheroids
  IC50: 188 ± 13.8 µM
other
  melting point: 260 °C
[2]; [4]
  IC50: 19.5 ± 2.9 µM

## Cn1cc(-c2nnc(N)nc2-c2cn(C)c3ncccc23)c2cc(Br)ccc21 [4c, 6-(5-Bromo-1-methyl-1H-indol-3-yl)-5-(1-methyl-1H-pyrrolo[2,3-b]pyridin-3-yl)-1,2,4-triazin-3-amine]
Recombinant human PDK1
  IC50: 0.26 ± 0.07 µM
BxPC-3 spheroids
  IC50: 76.8 ± 5.1 µM
[1]; [3]
  IC50: 9.5 ± 1.7 µM
PSN-1 spheroids
  IC50: 55.8 ± 3.5 µM
other
  melting point: 176.3 °C
[2]; [4]
  IC50: 7.8 ± 1.5 µM

## Cn1cc(-c2nnc(N)nc2-c2cn(C)c3ncccc23)c2cc(Cl)ccc21 [4e, 6-(5-Chloro-1-methyl-1H-indol-3-yl)-5-(1-methyl-1H-pyrrolo[2,3-b]pyridin-3-yl)-1,2,4-triazin-3-amine]
Recombinant human PDK1; compared with the other two examined ligands (5d, 5j)
  decrease in potency on PDK1 relative to 5d and 5j: 6 fold
Recombinant human PDK1
  IC50: 0.29 ± 0.06 µM
BxPC-3 spheroids
  IC50: 160 ± 11.4 µM
[1]; [3]
  IC50: 32.3 ± 8.2 µM
PSN-1 spheroids
  IC50: 59.6 ± 4.5 µM
other
  melting point: 178 °C
[2]; [4]
  IC50: 26.5 ± 4.3 µM

## Cn1cc(-c2nnc(N)nc2-c2cn(C)c3ncccc23)c2cc(F)ccc21 [4g, 6-(5-Fluoro-1-methyl-1H-indol-3-yl)-5-(1-methyl-1H-pyrrolo[2,3-b]pyridin-3-yl)-1,2,4-triazin-3-amine]
Recombinant human PDK1
  IC50: 0.19 ± 0.04 µM
BxPC-3 spheroids
  IC50: 71.5 ± 5.2 µM
[1]; [3]
  IC50: 6.5 ± 1.1 µM
PSN-1 spheroids
  IC50: 65.5 ± 6.8 µM
other
  melting point: 267.4 °C
[2]; [4]
  IC50: 4.5 ± 1.3 µM

## COc1ccc2c(c1)c(-c1nnc(N)nc1-c1cn(C)c3ncccc13)cn2C [4i, 6-(5-methoxy-1-methyl-1H-indol-3-yl)-5-(1-methyl-1H-pyrrolo[2,3-b]pyridin-3-yl)-1,2,4-triazin-3-amine]
Recombinant human PDK1
  IC50: 0.33 ± 0.1 µM
BxPC-3 spheroids
  IC50: 189 ± 10.9 µM
[1]; [3]
  IC50: 31.2 ± 5.5 µM
PSN-1 spheroids
  IC50: 140 ± 7.5 µM
other
  melting point: 217 °C
[2]; [4]
  IC50: 26.5 ± 4 µM

## COc1ccc2c(c1)c(-c1nnc(N)nc1-c1cn(C)c3ncc(Br)cc13)cn2C [4j, 5-(5-Bromo-1-methyl-1H-pyrrolo[2,3-b]pyridin-3-yl)-6-(5-methoxy-1-methyl-1H-indol-3-yl)-1,2,4-triazin-3-amine]
Recombinant human PDK1
  IC50: 0.18 ± 0.06 µM
BxPC-3 spheroids
  IC50: 160 ± 10.5 µM
[1]; [3]
  IC50: 30.5 ± 3.4 µM
PSN-1 spheroids
  IC50: 103 ± 8.7 µM
other
  melting point: 197.6 °C
[2]; [4]
  IC50: 27.8 ± 3.8 µM

## Cn1cc(-c2nc(N)nnc2-c2cn(C)c3ncccc23)c2ccccc21 [5a, 5-(1-Methyl-1H-indol-3-yl)-6-(1-methyl-1H-pyrrolo[2,3-b]pyridin-3-yl)-1,2,4-triazin-3-amine]
Recombinant human PDK1
  IC50: 0.32 ± 0.1 µM
BxPC-3 spheroids
  IC50: 170 ± 9.4 µM
[1]; [3]
  IC50: 27.2 ± 3.7 µM
PSN-1 spheroids
  IC50: 78.8 ± 8.5 µM
other
  melting point: 235.5 °C
[2]; [4]
  IC50: 22.2 ± 2.7 µM

## Cn1cc(-c2nc(N)nnc2-c2cn(C)c3ncc(Br)cc23)c2ccccc21 [5b, 6-(5-Bromo-1-methyl-1H-pyrrolo[2,3-b]pyridin-3-yl)-5-(1-methyl-1H-indol-3-yl)-1,2,4-triazin-3-ylamine]
Recombinant human PDK1
  IC50: 0.21 ± 0.07 µM
BxPC-3 spheroids
  IC50: 68.5 ± 2.5 µM
[1]; [3]
  IC50: 9.4 ± 1.3 µM
PSN-1 spheroids
  IC50: 73.6 ± 6.8 µM
[2]; [4]
  IC50: 5.2 ± 0.9 µM

## Cn1cc(-c2nc(N)nnc2-c2cn(C)c3ncccc23)c2cc(Br)ccc21 [5c, 5-(5-bromo-1-methyl-1H-indol-3-yl)-6-(1-methyl-1H-pyrrolo[2,3-b]pyridin-3-yl)-1,2,4-triazin-3-amine]
Recombinant human PDK1
  IC50: 0.27 ± 0.08 µM
BxPC-3 spheroids
  IC50: 156 ± 11.7 µM
[1]; [3]
  IC50: 13.7 ± 2.9 µM
PSN-1 spheroids
  IC50: 78.4 ± 5.8 µM
other
  melting point: 304.5 °C
[2]; [4]
  IC50: 9.2 ± 1.9 µM

## Cn1cc(-c2nc(N)nnc2-c2cn(C)c3ncccc23)c2cc(Cl)ccc21 [5e, 5-(5-Chloro-1-methyl-1H-indol-3-yl)-6-(1-methyl-1H-pyrrolo[2,3-b]pyridin-3-yl)-1,2,4-triazin-3-amine]
Recombinant human PDK1
  IC50: 0.32 ± 0.1 µM
BxPC-3 spheroids
  IC50: 200 ± 16.3 µM
[1]; [3]
  IC50: 16.5 ± 3.8 µM
PSN-1 spheroids
  IC50: 198 ± 12.4 µM
other
  melting point: 310.3 °C
[2]; [4]
  IC50: 14.2 ± 3.1 µM

## Cn1cc(-c2nc(N)nnc2-c2cn(C)c3ncccc23)c2cc(F)ccc21 [5g, 5-(5-Fluoro-1-methyl-1H-indol-3-yl)-6-(1-methyl-1H-pyrrolo[2,3-b]pyridin-3-yl)-1,2,4-triazin-3-amine]
Recombinant human PDK1
  IC50: 0.29 ± 0.1 µM
BxPC-3 spheroids
  IC50: 79.7 ± 11.4 µM
[1]; [3]
  IC50: 19.8 ± 3.2 µM
PSN-1 spheroids
  IC50: 130 ± 11.8 µM
other
  melting point: 281.4 °C
[2]; [4]
  IC50: 15.2 ± 4.6 µM

## O=C(O)C(Cl)Cl [DCA, Dichloroacetate, reference compound]
[1]; BXPC-3, 72 h
  IC50: > 1000 µM
PSN-1 spheroids
  IC50: 29800 ± 357 µM
[2]; PSN1, 72 h
  IC50: > 1000 µM

## Nc1ccn([C@@H]2O[C@H](CO)[C@@H](O)C2(F)F)c(=O)n1 [Gemcitabine, gemcitabine hydrochloride, reference compound]
BxPC-3 spheroids
  IC50: 160 ± 5.6 µM
[1]; [3]
  IC50: 0.02 ± 0.003 µM
PSN-1 spheroids
  IC50: 103 ± 6.3 µM
[2]; [4]
  IC50: 0.1 ± 0.04 µM
